Measurements as given in PubChem BioAssay AID256 (DTP/NCI, 2004).
Where “and” joins values, the source holds several entries; their conditions need not be identical. Equal entries are not always repeated. Inconclusive results and toxic doses are left out.

Tested on: CD2F1 mice, L1210 leukemia ip, survival T/C
Assay: NCI In Vivo Anticancer Drug Screen. Data for tumor model L1210 Leukemia (intraperitoneal) in CD2F1 (CDF1) mice
Conditions: higher = longer survival
Summary of the method: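 Activity against a transplanted murine tumor was judged by comparing the compound group with a vehicle group. The outcome in the treated animals was divided by that in the controls.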

[1] = endpoint: mean survival time, dose: 100.0 mg/kg/injection, schedule: Q01DX001 (ip), vehicle: saline
[2] = endpoint: mean survival time, dose: 200.0 mg/kg/injection, schedule: Q01DX001 (ip), vehicle: saline
[3] = endpoint: mean survival time, dose: 400.0 mg/kg/injection, schedule: Q01DX001 (ip), vehicle: saline
[4] = endpoint: mean survival time, dose: 25.0 mg/kg/injection, schedule: Q01DX009 (ip), vehicle: saline with Tween-80
[5] = endpoint: mean survival time, dose: 50.0 mg/kg/injection, schedule: Q01DX009 (ip), vehicle: saline with Tween-80
[6] = endpoint: mean survival time, dose: 100.0 mg/kg/injection, schedule: Q01DX009 (ip), vehicle: saline with Tween-80
[7] = endpoint: mean survival time, dose: 200.0 mg/kg/injection, schedule: Q01DX009 (ip), vehicle: saline
[8] = endpoint: mean survival time, dose: 400.0 mg/kg/injection, schedule: Q01DX009 (ip), vehicle: saline with Tween-80
[9] = endpoint: mean survival time, dose: 400.0 mg/kg/injection, schedule: Q01DX009 (ip), vehicle: saline
[10] = endpoint: mean survival time, dose: 100.0 mg/kg/injection, schedule: Q04DX003 (ip), vehicle: saline with Tween-80
[11] = endpoint: mean survival time, dose: 200.0 mg/kg/injection, schedule: Q01DX009 (ip), vehicle: saline with Tween-80
[12] = endpoint: mean survival time, dose: 200.0 mg/kg/injection, schedule: Q04DX003 (ip), vehicle: saline with Tween-80
[13] = endpoint: mean survival time, dose: 400.0 mg/kg/injection, schedule: Q04DX003 (ip), vehicle: saline with Tween-80

CN(C)/C=N\c1ncnc2c1cnn2C1OC(CO)C(O)C1O (centres undefined)
T/C (endpoint: mean survival time, dose: 3.13 mg/kg/injection, schedule: Q01DX005 (ip), vehicle: water): 96 % of control
T/C (endpoint: mean survival time, dose: 6.25 mg/kg/injection, schedule: Q01DX005 (ip), vehicle: water): 102 % of control
T/C (endpoint: mean survival time, dose: 12.5 mg/kg/injection, schedule: Q01DX005 (ip), vehicle: water): 110 % of control
T/C (endpoint: mean survival time, dose: 25.0 mg/kg/injection, schedule: Q01DX005 (ip), vehicle: water): 98 % of control and 107 % of control
T/C (endpoint: mean survival time, dose: 50.0 mg/kg/injection, schedule: Q01DX005 (ip), vehicle: water): 113 % of control and 110 % of control

O=C(O)C(O)C(=O)O.[NH-]C1CCCCC1[NH-].[Pt+2]
T/C (endpoint: mean survival time, dose: 1.18 mg/kg/injection, schedule: Q04DX003 (ip), vehicle: saline with Tween-80): 109 % of control
T/C (endpoint: mean survival time, dose: 2.35 mg/kg/injection, schedule: Q04DX003 (ip), vehicle: saline with Tween-80): 120 % of control
T/C (endpoint: mean survival time, dose: 4.7 mg/kg/injection, schedule: Q04DX003 (ip), vehicle: saline with Tween-80): 124 % of control

CCOC(=O)C(Cc1ccc(Cl)cc1)P(=O)(OCC)OCC (centres undefined)
T/C [1]: 106 % of control
T/C [2]: 101 % of control
T/C [3]: 106 % of control

CCOC(=O)c1c[nH]c2oc(/C=N/N3CC(CN4CCOCC4)OC3=O)cc2c1=O (centres undefined)
T/C (endpoint: mean survival time, dose: 12.5 mg/kg/injection, schedule: Q01DX009 (ip), vehicle: saline): 97 % of control and 109 % of control
T/C (endpoint: mean survival time, dose: 25.0 mg/kg/injection, schedule: Q01DX009 (ip), vehicle: other): 102 % of control
T/C [4]: 107 % of control
T/C (endpoint: mean survival time, dose: 25.0 mg/kg/injection, schedule: Q01DX009 (ip), vehicle: saline): 97 % of control and 103 % of control
T/C (endpoint: mean survival time, dose: 50.0 mg/kg/injection, schedule: Q01DX009 (ip), vehicle: other): 110 % of control
T/C [5]: 109 % of control
T/C (endpoint: mean survival time, dose: 50.0 mg/kg/injection, schedule: Q01DX009 (ip), vehicle: saline): 114 % of control and 101 % of control
T/C [6]: 124 % of control
T/C (endpoint: mean survival time, dose: 200.0 mg/kg/injection, schedule: Q01DX009 (ip), vehicle: other): 160 % of control
T/C [7]: 158 % of control
T/C (endpoint: mean survival time, dose: 400.0 mg/kg/injection, schedule: Q01DX009 (ip), vehicle: other): 96 % of control
T/C [8]: 152 % of control
T/C [9]: 124 % of control and 100 % of control
T/C (endpoint: median survival time, dose: 50.0 mg/kg/injection, schedule: Q01DX005 (ip), vehicle: other): 112 % of control
T/C (endpoint: median survival time, dose: 50.0 mg/kg/injection, schedule: Q01DX009 (ip), vehicle: acid diluted with saline): 115 % of control and 101 % of control
T/C (endpoint: median survival time, dose: 100.0 mg/kg/injection, schedule: Q01DX005 (ip), vehicle: other): 118 % of control
T/C (endpoint: median survival time, dose: 100.0 mg/kg/injection, schedule: Q01DX009 (ip), vehicle: acid diluted with saline): 124 % of control
T/C (endpoint: median survival time, dose: 400.0 mg/kg/injection, schedule: Q01DX005 (ip), vehicle: other): 190 % of control
T/C (endpoint: median survival time, dose: 400.0 mg/kg/injection, schedule: Q01DX009 (ip), vehicle: acid diluted with saline): 90 % of control

NN1C(=O)c2c(Cl)c(Cl)c(Cl)c(Cl)c2C1=O
T/C [6]: 97 % of control
T/C [10]: 95 % of control
T/C [11]: 98 % of control
T/C [12]: 97 % of control
T/C [8]: 93 % of control
T/C [13]: 92 % of control

O=C(CCl)N1CCC2(CC1)SSC1(CCN(C(=O)CCl)CC1)S2
T/C (endpoint: mean survival time, dose: 12.5 mg/kg/injection, schedule: Q01DX009 (ip), vehicle: saline with Tween-80): 94 % of control
T/C [4]: 93 % of control
T/C (endpoint: mean survival time, dose: 25.0 mg/kg/injection, schedule: Q04DX003 (ip), vehicle: saline with Tween-80): 89 % of control
T/C [5]: 97 % of control
T/C (endpoint: mean survival time, dose: 50.0 mg/kg/injection, schedule: Q04DX003 (ip), vehicle: saline with Tween-80): 100 % of control
T/C [10]: 93 % of control

O=[N+]([O-])C(Br)(CO)CO
T/C (endpoint: mean survival time, dose: 4.7 mg/kg/injection, schedule: Q01DX009 (ip), vehicle: saline): 101 % of control
T/C (endpoint: mean survival time, dose: 4.7 mg/kg/injection, schedule: Q04DX003 (ip), vehicle: saline): 98 % of control
T/C (endpoint: mean survival time, dose: 9.4 mg/kg/injection, schedule: Q01DX009 (ip), vehicle: saline): 101 % of control
T/C (endpoint: mean survival time, dose: 9.4 mg/kg/injection, schedule: Q04DX003 (ip), vehicle: saline): 96 % of control
T/C (endpoint: mean survival time, dose: 18.8 mg/kg/injection, schedule: Q01DX001 (ip), vehicle: saline): 102 % of control
T/C (endpoint: mean survival time, dose: 18.8 mg/kg/injection, schedule: Q01DX009 (ip), vehicle: saline): 95 % of control
T/C (endpoint: mean survival time, dose: 18.8 mg/kg/injection, schedule: Q04DX003 (ip), vehicle: saline): 105 % of control

O=C(C[n+]1ccccc1)N/N=C/c1c(O)ccc2ccccc12
T/C [4]: 100 % of control
T/C [5]: 99 % of control
T/C [6]: 99 % of control

OCC1OC(c2nnc3c4ccccc4cnn23)C(O)C1O (centres undefined)
T/C (endpoint: mean survival time, dose: 10.94 mg/kg/injection, schedule: Q01DX005 (ip), vehicle: water): 100 % of control
T/C (endpoint: mean survival time, dose: 11.25 mg/kg/injection, schedule: Q01DX005 (ip), vehicle: water): 96 % of control
T/C (endpoint: mean survival time, dose: 21.88 mg/kg/injection, schedule: Q01DX005 (ip), vehicle: water): 94 % of control
T/C (endpoint: mean survival time, dose: 22.5 mg/kg/injection, schedule: Q01DX005 (ip), vehicle: water): 94 % of control
T/C (endpoint: mean survival time, dose: 43.75 mg/kg/injection, schedule: Q01DX005 (ip), vehicle: water): 93 % of control
T/C (endpoint: mean survival time, dose: 45.0 mg/kg/injection, schedule: Q01DX005 (ip), vehicle: water): 90 % of control
T/C (endpoint: mean survival time, dose: 87.5 mg/kg/injection, schedule: Q01DX005 (ip), vehicle: water): 94 % of control
T/C (endpoint: mean survival time, dose: 90.0 mg/kg/injection, schedule: Q01DX005 (ip), vehicle: water): 96 % of control
T/C (endpoint: mean survival time, dose: 175.0 mg/kg/injection, schedule: Q01DX005 (ip), vehicle: water): 93 % of control
T/C (endpoint: mean survival time, dose: 180.0 mg/kg/injection, schedule: Q01DX005 (ip), vehicle: water): 94 % of control

O=C(O)CCCCCCCCC(=O)O (tested in a mixture with another compound)
T/C [5]: 100 % of control
T/C [6]: 100 % of control
T/C [11]: 102 % of control

CCCCCC1c2cc(O)ccc2OC1N1CCOCC1 (centres undefined)
T/C (endpoint: median survival time, dose: 12.0 mg/kg/injection, schedule: Q01DX009 (ip), vehicle: saline with Tween-80): 108 % of control
T/C (endpoint: median survival time, dose: 25.0 mg/kg/injection, schedule: Q01DX009 (ip), vehicle: saline with Tween-80): 106 % of control
T/C (endpoint: median survival time, dose: 50.0 mg/kg/injection, schedule: Q01DX009 (ip), vehicle: saline with Tween-80): 97 % of control
T/C (endpoint: median survival time, dose: 100.0 mg/kg/injection, schedule: Q01DX009 (ip), vehicle: saline with Tween-80): 102 % of control
T/C (endpoint: median survival time, dose: 200.0 mg/kg/injection, schedule: Q01DX009 (ip), vehicle: saline with Tween-80): 98 % of control

COc1ccc(CC#N)cc1OC
T/C (endpoint: mean survival time, dose: 3.75 mg/kg/injection, schedule: Q01DX009 (ip), vehicle: saline with Tween-80): 95 % of control
T/C (endpoint: mean survival time, dose: 3.75 mg/kg/injection, schedule: Q04DX003 (ip), vehicle: saline with Tween-80): 107 % of control
T/C (endpoint: mean survival time, dose: 7.5 mg/kg/injection, schedule: Q01DX009 (ip), vehicle: saline with Tween-80): 95 % of control
T/C (endpoint: mean survival time, dose: 7.5 mg/kg/injection, schedule: Q04DX003 (ip), vehicle: saline with Tween-80): 103 % of control
T/C (endpoint: mean survival time, dose: 15.0 mg/kg/injection, schedule: Q01DX009 (ip), vehicle: saline with Tween-80): 95 % of control
T/C (endpoint: mean survival time, dose: 15.0 mg/kg/injection, schedule: Q04DX003 (ip), vehicle: saline with Tween-80): 103 % of control

CN(C)Cc1cc(C(C)(C)C)cc(CN(C)C)c1O
T/C (endpoint: mean survival time, dose: 2.5 mg/kg/injection, schedule: Q01DX009 (ip), vehicle: saline with Tween-80): 98 % of control
T/C (endpoint: mean survival time, dose: 5.0 mg/kg/injection, schedule: Q01DX009 (ip), vehicle: saline with Tween-80): 96 % of control
T/C (endpoint: mean survival time, dose: 10.0 mg/kg/injection, schedule: Q01DX009 (ip), vehicle: saline with Tween-80): 95 % of control and 100 % of control

O=C(O)c1cccc(-c2c3ccc(=O)cc-3oc3cc(O)ccc23)c1
T/C [10]: 96 % of control
T/C [12]: 100 % of control
T/C [13]: 96 % of control

CCCCCCCCC/C=C(\CCCCCCCCCC)c1ccccc1
T/C [1]: 94 % of control
T/C [2]: 94 % of control
T/C [3]: 100 % of control

C#CC(C)OCCO (centres undefined)
T/C (endpoint: mean survival time, dose: 100.0 mg/kg/injection, schedule: Q04DX003 (ip), vehicle: acetone): 104 % of control
T/C (endpoint: mean survival time, dose: 200.0 mg/kg/injection, schedule: Q04DX003 (ip), vehicle: acetone): 98 % of control
T/C (endpoint: mean survival time, dose: 400.0 mg/kg/injection, schedule: Q04DX003 (ip), vehicle: acetone): 120 % of control

CC1(C)C(=O)C2(I)CCC1C2 (centres undefined)
T/C [10]: 101 % of control
T/C [12]: 98 % of control
T/C [13]: 98 % of control

O=C(O)c1ccccc1Oc1ccccc1C(=O)O
T/C (endpoint: mean survival time, dose: 100.0 mg/kg/injection, schedule: Q01DX009 (ip), vehicle: saline): 101 % of control
T/C [7]: 101 % of control
T/C [9]: 94 % of control
